Measured values as given in ChEMBL document CHEMBL2413072, “Synthesis and in vitro anticancer studies of novel C-2 arylidene congeners of lantadenes” (2013).

Legend:
Format in all cases: functional
U-251 [1] = assay: Growth inhibition of human U251 cells assessed as cell growth at 10^-6 M by sulforhodamine B assay; conditions: read-out: Activity
MDA-MB-468 = assay: Growth inhibition of human MDA-MB-468 cells assessed as cell growth at 10^-7 M by sulforhodamine B assay; conditions: read-out: Activity
MCF7 [2] = assay: Growth inhibition of human MCF7 cells assessed as cell growth at 10^-6 M by sulforhodamine B assay; conditions: read-out: Activity
HOP-92 = assay: Growth inhibition of human HOP92 cells assessed as cell growth at 10^-8 M by sulforhodamine B assay; conditions: read-out: Activity
RPMI-8226 = assay: Growth inhibition of human RPMI8226 cells assessed as cell growth at 10^-7 M by sulforhodamine B assay; conditions: read-out: Activity
NCI-H226 [3] = assay: Growth inhibition of human NCI-H226 cells assessed as cell growth at 10^-8 M by sulforhodamine B assay; conditions: read-out: Activity
PC-3 [4] = assay: Growth inhibition of human PC3 cells by sulforhodamine B assay
UACC-62 [5] = assay: Growth inhibition of human UACC62 cells by sulforhodamine B assay
U-251 [6] = assay: Growth inhibition of human U251 cells assessed as cell growth at 10^-4 M by sulforhodamine B assay; conditions: read-out: Activity
[7] = Growth inhibition of human NCI-ADR-RES cells assessed as cell growth at 10^-7 M by sulforhodamine B assay; conditions: read-out: Activity
ACHN = assay: Growth inhibition of human ACHN cells assessed as cell growth at 10^-4 M by sulforhodamine B assay; conditions: read-out: Activity
SN12C [8] = assay: Growth inhibition of human SN12C cells assessed as cell growth at 10^-8 M by sulforhodamine B assay; conditions: read-out: Activity
SN12C [9] = assay: Growth inhibition of human SN12C cells assessed as cell growth at 10^-6 M by sulforhodamine B assay; conditions: read-out: Activity
IGROV-1 = assay: Growth inhibition of human IGROV1 cells assessed as cell growth at 10^-8 M by sulforhodamine B assay; conditions: read-out: Activity
UACC-62 [10] = assay: Growth inhibition of human UACC62 cells assessed as cell growth at 10^-6 M by sulforhodamine B assay; conditions: read-out: Activity
NCI-H226 [11] = assay: Growth inhibition of human NCI-H226 cells assessed as cell growth at 10^-4 M by sulforhodamine B assay; conditions: read-out: Activity
SK-MEL-28 = assay: Growth inhibition of human SK-MEL-28 cells assessed as cell growth at 10^-8 M by sulforhodamine B assay; conditions: read-out: Activity
MOLT-4 = assay: Growth inhibition of human MOLT4 cells by sulforhodamine B assay
SF-268 [12] = assay: Growth inhibition of human SF268 cells assessed as cell growth at 10^-6 M by sulforhodamine B assay; conditions: read-out: Activity
LOX IMVI = assay: Growth inhibition of human LOXIMVI cells by sulforhodamine B assay
MCF7 [13] = assay: Growth inhibition of human MCF7 cells assessed as cell growth at 10^-8 M by sulforhodamine B assay; conditions: read-out: Activity
MDA-MB-231 = assay: Growth inhibition of human MDA-MB-231 cells assessed as cell growth at 10^-6 M by sulforhodamine B assay; conditions: read-out: Activity
NCI-H522 [14] = assay: Growth inhibition of human NCI-H522 cells assessed as cell growth at 10^-6 M by sulforhodamine B assay; conditions: read-out: Activity
OVCAR-8 = assay: Growth inhibition of human OVCAR8 cells assessed as cell growth at 10^-7 M by sulforhodamine B assay; conditions: read-out: Activity
T47D = assay: Growth inhibition of human T47D cells assessed as cell growth at 10^-7 M by sulforhodamine B assay; conditions: read-out: Activity
M14 = assay: Growth inhibition of human M14 cells assessed as cell growth at 10^-7 M by sulforhodamine B assay; conditions: read-out: Activity
SK-MEL-5 = assay: Growth inhibition of human SK-MEL-5 cells by sulforhodamine B assay
UO-31 = assay: Growth inhibition of human UO31 cells by sulforhodamine B assay
[15] = Growth inhibition of human NCI-ADR-RES cells assessed as cell growth at 10^-8 M by sulforhodamine B assay; conditions: read-out: Activity
SF-268 [16] = assay: Growth inhibition of human SF268 cells assessed as cell growth at 10^-4 M by sulforhodamine B assay; conditions: read-out: Activity
NCI-H522 [17] = assay: Growth inhibition of human NCI-H522 cells by sulforhodamine B assay
SF-295 = assay: Growth inhibition of human SF295 cells by sulforhodamine B assay
CAKI-1 = assay: Growth inhibition of human CAKI-1 cells assessed as cell growth at 10^-6 M by sulforhodamine B assay; conditions: read-out: Activity
SNB-75 = assay: Growth inhibition of human SNB75 cells assessed as cell growth at 10^-7 M by sulforhodamine B assay; conditions: read-out: Activity
NCI-H460 = assay: Growth inhibition of human NCI-H460 cells by sulforhodamine B assay
NCI-H23 = assay: Growth inhibition of human NCI-H23 cells by sulforhodamine B assay
TK-10 = assay: Growth inhibition of human TK10 cells assessed as cell growth at 10^-6 M by sulforhodamine B assay; conditions: read-out: Activity
PC-3 [18] = assay: Growth inhibition of human PC3 cells assessed as cell growth at 10^-4 M by sulforhodamine B assay; conditions: read-out: Activity
[19] = read-out: LC50 (the source's name)
[20] = read-out: pLC50 (the source's name) (converted)

SMILES: CC(C)=CC(=O)O[C@@H]1CC(C)(C)C[C@H]2C3=CC[C@@H]4[C@@]5(C)CCC(=O)C(C)(C)[C@@H]5CC[C@@]4(C)[C@]3(C)CC[C@@]12C(=O)O
- growth at 1 µM (U-251 [1]): 74%
- growth at 0.1 µM (MDA-MB-468): 89%
- growth at 1 µM (MCF7 [2]): 84%
- growth at 0.01 µM (HOP-92): 97%
- growth at 0.1 µM (RPMI-8226): 91%
- growth at 0.01 µM (NCI-H226 [3]): 95%
- GI50 (PC-3 [4]; read-out: GI50): 1.55 µM
- CC50 (PC-3 [4]; [19]): > 100 µM
- TGI (PC-3 [4]; read-out: TGI): 89.1 µM
- GI50 (PC-3 [4]; read-out: pGI50 (converted)): 1.55 µM
- CC50 (PC-3 [4]; [20]): > 100 µM
- TGI (PC-3 [4]; read-out: pTGI (converted)): 89.1 µM
- GI50 (UACC-62 [5]; read-out: GI50): 2.47 µM
- CC50 (UACC-62 [5]; [19]): 48.5 µM
- TGI (UACC-62 [5]; read-out: TGI): 14.2 µM
- GI50 (UACC-62 [5]; read-out: pGI50 (converted)): 2.45 µM
- CC50 (UACC-62 [5]; [20]): 49 µM
- TGI (UACC-62 [5]; read-out: pTGI (converted)): 14.1 µM
- growth at 100 µM (U-251 [6]): -49%
- growth at 0.1 µM [7]: 95%
- growth at 100 µM (ACHN): -31%
- growth at 0.01 µM (SN12C [8]): 99%
- growth at 1 µM (SN12C [9]): 80%
- growth at 0.01 µM (IGROV-1): 103%
- growth at 1 µM (UACC-62 [10]): 73%
- growth at 100 µM (NCI-H226 [11]): 12%
- growth at 0.01 µM (SK-MEL-28): 108%
- GI50 (MOLT-4; read-out: GI50): 2.92 µM
- CC50 (MOLT-4; [19]): > 100 µM
- TGI (MOLT-4; read-out: TGI): 20.6 µM
- GI50 (MOLT-4; read-out: pGI50 (converted)): 2.95 µM
- CC50 (MOLT-4; [20]): > 100 µM
- TGI (MOLT-4; read-out: pTGI (converted)): 20.4 µM
- growth at 1 µM (SF-268 [12]): 93%
- GI50 (LOX IMVI; read-out: GI50): 6.32 µM
- CC50 (LOX IMVI; [19]): > 100 µM
- TGI (LOX IMVI; read-out: TGI): 29.3 µM
- GI50 (LOX IMVI; read-out: pGI50 (converted)): 6.31 µM
- CC50 (LOX IMVI; [20]): > 100 µM
- TGI (LOX IMVI; read-out: pTGI (converted)): 29.5 µM
- growth at 0.01 µM (MCF7 [13]): 87%
- growth at 1 µM (MDA-MB-231): 76%
- growth at 1 µM (NCI-H522 [14]): 82%
- growth at 0.1 µM (OVCAR-8): 96%
- growth at 0.1 µM (T47D): 96%
- growth at 0.1 µM (M14): 94%
- GI50 (SK-MEL-5; read-out: GI50): 1.5 µM
- CC50 (SK-MEL-5; [19]): 46.2 µM
- TGI (SK-MEL-5; read-out: TGI): 11.7 µM
- GI50 (SK-MEL-5; read-out: pGI50 (converted)): 1.51 µM
- CC50 (SK-MEL-5; [20]): 45.7 µM
- TGI (SK-MEL-5; read-out: pTGI (converted)): 11.7 µM
- GI50 (UO-31; read-out: GI50): 2.95 µM
- CC50 (UO-31; [19]): > 100 µM
- TGI (UO-31; read-out: TGI): 32.2 µM
- GI50 (UO-31; read-out: pGI50 (converted)): 2.95 µM
- CC50 (UO-31; [20]): > 100 µM
- TGI (UO-31; read-out: pTGI (converted)): 32.4 µM
- growth at 0.01 µM [15]: 103%
- growth at 100 µM (SF-268 [16]): -38%
- GI50 (NCI-H522 [17]; read-out: GI50): 3.14 µM
- CC50 (NCI-H522 [17]; [19]): > 100 µM
- TGI (NCI-H522 [17]; read-out: TGI): 29.4 µM
- GI50 (NCI-H522 [17]; read-out: pGI50 (converted)): 3.16 µM
- CC50 (NCI-H522 [17]; [20]): > 100 µM
- TGI (NCI-H522 [17]; read-out: pTGI (converted)): 29.5 µM
- GI50 (SF-295; read-out: GI50): 1.7 µM
- CC50 (SF-295; [19]): 72.7 µM
- TGI (SF-295; read-out: TGI): 11.9 µM
- GI50 (SF-295; read-out: pGI50 (converted)): 1.7 µM
- CC50 (SF-295; [20]): 72.4 µM
- TGI (SF-295; read-out: pTGI (converted)): 12 µM
- growth at 1 µM (CAKI-1): 87%
- growth at 0.1 µM (SNB-75): 90%
- GI50 (NCI-H460; read-out: GI50): 2.21 µM
- LC50 (NCI-H460; read-out: LC50): 85.5 µM
- TGI (NCI-H460; read-out: TGI): 14.6 µM
- GI50 (NCI-H460; read-out: pGI50 (converted)): 2.19 µM
- LC50 (NCI-H460; read-out: pLC50 (converted)): 85.1 µM
- TGI (NCI-H460; read-out: pTGI (converted)): 14.5 µM
- GI50 (NCI-H23; read-out: GI50): 3.96 µM
- CC50 (NCI-H23; [19]): > 100 µM
- TGI (NCI-H23; read-out: TGI): 51.9 µM
- GI50 (NCI-H23; read-out: pGI50 (converted)): 3.98 µM
- CC50 (NCI-H23; [20]): > 100 µM
- TGI (NCI-H23; read-out: pTGI (converted)): 52.5 µM
- growth at 1 µM (TK-10): 98%
- growth at 100 µM (PC-3 [18]): -1%
